Assay results taken from the supplement of paper PMC9334596.
Structures can show the parent of a compound that is named as a salt.

Test system: mPer2Luc MEF
Assay: PER2::LUC luminescence relative to vehicle control (fold of vehicle); higher = higher PER2::LUC reporter signal
Protocol: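 Secondary dose-response validation of 72 circadian-modulating compounds in mPer2Luc MEFs, threefold dilution series of six doses from 10 uM down to 0.04 uM. PER2::LUC luminescence read at 24 h and 30 h after treatment, normalised to vehicle (DMSO) control.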

[1] = time after treatment: 24-hour, concentration: 0.04μM
[2] = time after treatment: 24-hour, concentration: 0.37μM
[3] = time after treatment: 24-hour, concentration: 3.33μM
[4] = time after treatment: 24-hour, concentration: 10μM
[5] = time after treatment: 30-hour, concentration: 0.04μM
[6] = time after treatment: 30-hour, concentration: 0.37μM
[7] = time after treatment: 30-hour, concentration: 3.33μM
[8] = time after treatment: 30-hour, concentration: 10μM

Row | SMILES | PER2::LUC luminescence [1] | PER2::LUC luminescence [2] | PER2::LUC luminescence [3] | PER2::LUC luminescence [4] | PER2::LUC luminescence [5] | PER2::LUC luminescence [6] | PER2::LUC luminescence [7] | PER2::LUC luminescence [8]
1 | CCOC(=O)c1ccc(N(C)c2csc(-c3ccccc3)n2)cc1 [Neuropathiazol] | 0.939 | 1 | 1.04 | 1.1 | 0.913 | 0.937 | 1 | 1.08
2 | O=C(Nc1ccc(OC(F)(F)F)cc1)c1sccc1NCc1ccnc2ccccc12 [OSI-930] | 1.11 | 1.04 | 1.37 | 1.43 | 1.14 | 1.11 | 1.57 | 1.91
3 | CCOc1cc2ncc(C#N)c(Nc3ccc(F)c(Cl)c3)c2cc1NC(=O)/C=C/CN(C)C [Pelitinib (EKB-569)] | 0.891 | 0.933 | 0.78 | 0.334 | 0.836 | 0.815 | 0.618 | 0.227
4 | O=C(c1ccc(OCCN2CCCCC2)cc1)c1c(-c2ccc(O)cc2)sc2cc(O)ccc12 [Raloxifene HCl] | 0.941 | 0.955 | 0.814 | 0.287 | 1 | 0.996 | 0.896 | 0.512
5 | O=C1c2ccccc2C(=O)c2oc(-c3ccccc3)nc21 [SJB2-043] | 1.11 | 1.29 | 1.94 | 1.65 | 1.17 | 1.2 | 1.36 | 1.11
6 | CCc1nc(-c2cccc(C)c2)c(-c2ccnc(NC(=O)c3ccccc3)c2)s1 [TAK 715] | 0.993 | 0.95 | 0.955 | 0.895 | 0.926 | 0.929 | 0.924 | 0.888
7 | O=c1sn(-c2cccc3ccccc23)c(=O)n1Cc1ccccc1 [Tideglusib] | 0.908 | 0.902 | 0.864 | 0.879 | 0.9 | 0.856 | 0.886 | 0.891
8 | CN1CCc2c(c3ccccc3n2Cc2ccc(C(=O)NO)cc2)C1 [Tubastatin A HCl] | 1.07 | 1.05 | 1.05 | 0.699 | 0.984 | 0.982 | 0.916 | 0.576
9 | NS(=O)(=O)c1ccc(NC(=O)Nc2ccc(F)cc2)cc1 [U-104] | 1.04 | 1.05 | 1.01 | 0.876 | 1.05 | 1.06 | 1.06 | 0.947
10 | C[C@H](NC(=O)/C(C#N)=C/c1cccc(Br)n1)c1ccccc1 [WP1066] | 1.1 | 1.03 | 1.14 | 0.142 | 1.02 | 1.02 | 0.891 | 0.13
11 | CCOc1cc(C(=O)N2CCC(N3CCN(C)CC3)CC2)ccc1Nc1ncc2c(n1)N(C1CCCC1)c1ccccc1C(=O)N2C [XMD17-109] | 0.79 | 0.698 | 0.241 | 0.049 | 0.796 | 0.664 | 0.285 | 0.055
12 | COc1cc(-c2nc3ccccc3s2)ccc1O [YL-109] | 1.05 | 1.08 | 1.31 | 1.39 | 1.13 | 1.16 | 1.42 | 1.53
13 | CC(C)(C)c1ccc(-c2nc3ccccc3[nH]2)cc1 [ZLN005] | 0.223 | 0.131 | 0.076 | 0.065 | 0.357 | 0.204 | 0.098 | 0.075
